Values belong to the compound of their own block, whether it stands above or below them. Activity calls are given as the source filed them. The calls are words filed in the database; no cut-off is given here.
Tests used:
[1] = target: T1, Protein deacetylase HDAC6 (Homo sapiens, UniProt Q9UBN7); assay: Inhibition of human HDAC6 using fluorogenic substrate incubated for 1 hrs by fluorescence plate reader assay
T1 sequence (Q9UBN7 whole entry): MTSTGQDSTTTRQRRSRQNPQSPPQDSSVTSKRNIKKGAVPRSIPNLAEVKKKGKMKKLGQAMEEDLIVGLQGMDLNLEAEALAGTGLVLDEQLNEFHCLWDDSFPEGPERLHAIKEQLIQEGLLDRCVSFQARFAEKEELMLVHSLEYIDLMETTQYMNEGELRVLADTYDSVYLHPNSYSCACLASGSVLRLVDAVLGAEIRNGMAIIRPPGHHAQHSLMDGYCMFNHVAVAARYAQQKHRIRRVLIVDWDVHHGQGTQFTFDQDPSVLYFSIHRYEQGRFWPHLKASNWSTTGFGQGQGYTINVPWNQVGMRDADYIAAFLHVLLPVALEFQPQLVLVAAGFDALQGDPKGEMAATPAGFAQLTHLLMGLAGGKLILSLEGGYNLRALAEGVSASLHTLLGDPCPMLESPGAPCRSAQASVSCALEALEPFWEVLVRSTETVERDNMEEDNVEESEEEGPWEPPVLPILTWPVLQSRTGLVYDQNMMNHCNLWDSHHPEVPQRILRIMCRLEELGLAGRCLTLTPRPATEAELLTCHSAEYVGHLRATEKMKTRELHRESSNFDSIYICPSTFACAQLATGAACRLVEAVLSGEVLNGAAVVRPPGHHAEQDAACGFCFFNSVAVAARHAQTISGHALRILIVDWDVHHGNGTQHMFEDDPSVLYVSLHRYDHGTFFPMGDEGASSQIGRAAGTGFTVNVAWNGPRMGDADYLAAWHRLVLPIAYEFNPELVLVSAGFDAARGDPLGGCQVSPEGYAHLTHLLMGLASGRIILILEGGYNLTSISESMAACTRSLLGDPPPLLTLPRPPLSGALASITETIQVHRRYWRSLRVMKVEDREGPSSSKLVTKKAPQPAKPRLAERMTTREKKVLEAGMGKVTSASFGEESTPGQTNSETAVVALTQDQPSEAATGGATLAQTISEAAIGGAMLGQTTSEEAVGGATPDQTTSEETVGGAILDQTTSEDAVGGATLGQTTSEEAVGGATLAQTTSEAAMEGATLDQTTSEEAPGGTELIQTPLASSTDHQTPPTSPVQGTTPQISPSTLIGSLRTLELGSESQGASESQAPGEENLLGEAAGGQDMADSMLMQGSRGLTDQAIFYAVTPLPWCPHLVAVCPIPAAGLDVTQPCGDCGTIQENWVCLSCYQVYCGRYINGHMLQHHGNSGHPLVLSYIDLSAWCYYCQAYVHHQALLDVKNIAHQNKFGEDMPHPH

[2] = target: Histone deacetylase 4 (Homo sapiens, UniProt P56524); assay: Inhibition of human HDAC4 using fluorogenic substrate incubated for 1 hrs by fluorescence plate reader assay
[3] = target: T2, Polyamine deacetylase HDAC10 (Homo sapiens, UniProt Q969S8); assay: Inhibition of human HDAC10 using fluorogenic substrate incubated for 1 hrs by fluorescence plate reader assay
T2 sequence (Q969S8 whole entry): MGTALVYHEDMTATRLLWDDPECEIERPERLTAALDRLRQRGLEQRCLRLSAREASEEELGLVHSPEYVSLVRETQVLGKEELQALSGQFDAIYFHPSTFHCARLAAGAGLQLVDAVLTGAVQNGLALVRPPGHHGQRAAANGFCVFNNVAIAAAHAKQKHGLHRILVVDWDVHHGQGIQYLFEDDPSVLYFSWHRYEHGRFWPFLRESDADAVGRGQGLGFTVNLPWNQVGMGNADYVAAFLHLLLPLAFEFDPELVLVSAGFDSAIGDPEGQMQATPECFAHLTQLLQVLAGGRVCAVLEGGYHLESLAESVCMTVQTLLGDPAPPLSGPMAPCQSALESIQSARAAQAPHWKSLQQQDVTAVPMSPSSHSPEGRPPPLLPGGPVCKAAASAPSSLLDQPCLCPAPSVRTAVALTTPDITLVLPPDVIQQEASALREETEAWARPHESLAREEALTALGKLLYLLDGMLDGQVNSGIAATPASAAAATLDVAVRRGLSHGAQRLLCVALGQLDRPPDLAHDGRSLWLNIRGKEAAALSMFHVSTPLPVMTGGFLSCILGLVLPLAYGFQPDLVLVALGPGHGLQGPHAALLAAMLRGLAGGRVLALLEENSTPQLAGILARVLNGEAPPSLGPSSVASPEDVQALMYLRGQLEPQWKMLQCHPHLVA

[4] = target: T3, Histone deacetylase 8 (Homo sapiens, UniProt Q9BY41); assay: Inhibition of human HDAC8 using fluorogenic substrate incubated for 1 hrs by fluorescence plate reader assay
T3 sequence (Q9BY41 whole entry): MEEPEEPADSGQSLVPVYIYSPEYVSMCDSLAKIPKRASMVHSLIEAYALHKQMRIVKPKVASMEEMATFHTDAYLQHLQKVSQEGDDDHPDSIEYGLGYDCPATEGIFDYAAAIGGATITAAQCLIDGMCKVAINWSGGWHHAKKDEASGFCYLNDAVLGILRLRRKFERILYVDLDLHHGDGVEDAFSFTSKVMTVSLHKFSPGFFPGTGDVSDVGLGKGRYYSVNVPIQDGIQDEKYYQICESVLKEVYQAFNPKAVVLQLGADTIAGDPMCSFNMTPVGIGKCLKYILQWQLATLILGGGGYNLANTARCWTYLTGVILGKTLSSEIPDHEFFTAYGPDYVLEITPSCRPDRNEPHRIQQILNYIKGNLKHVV

[5] = target: Histone deacetylase 1 (Homo sapiens, UniProt Q13547); assay: Inhibition of human HDAC1 using fluorogenic substrate incubated for 1 hrs by fluorescence plate reader assay
[6] = target: Histone deacetylase 2 (Homo sapiens, UniProt Q92769); assay: Inhibition of human HDAC2 using fluorogenic substrate incubated for 1 hrs by fluorescence plate reader assay
[7] = target: T4, Histone deacetylase 11 (Homo sapiens, UniProt Q96DB2); assay: Inhibition of human HDAC11 using fluorogenic substrate incubated for 1 hrs by fluorescence plate reader assay
T4 sequence (Q96DB2 whole entry): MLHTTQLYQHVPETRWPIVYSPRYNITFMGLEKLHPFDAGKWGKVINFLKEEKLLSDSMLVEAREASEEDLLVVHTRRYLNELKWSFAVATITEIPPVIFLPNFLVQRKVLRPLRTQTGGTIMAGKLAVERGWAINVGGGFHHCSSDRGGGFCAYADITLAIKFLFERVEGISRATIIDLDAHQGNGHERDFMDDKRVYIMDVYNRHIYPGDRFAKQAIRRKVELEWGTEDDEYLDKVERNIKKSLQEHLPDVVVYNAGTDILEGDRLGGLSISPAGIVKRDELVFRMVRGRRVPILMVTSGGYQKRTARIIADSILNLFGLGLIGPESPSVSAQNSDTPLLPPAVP

[8] = test system: SH-SY5Y; assay: Cytotoxicity against human SH-SY5Y cells assessed as cell viability incubated for 24 hrs by MTT assay; type: cell-based
[9] = test system: SH-SY5Y; assay: Neuroprotective activity against amyloid beta (1 to 42)-induced cytotoxicity in human SH-SY5Y cells assessed as increase in cell viability at 3 uM after 24 hrs by MTT assay (reference value: 60.4%); type: functional
[10] = test system: SH-SY5Y; assay: Neuroprotective activity against Cu2+/amyloid beta (1 to 42)-induced toxicity in human SH-SY5Y cells assessed as increase in cell viability at 3 uM after 24 hrs by MTT assay (reference value: 47.2%); type: functional
[11] = test system: SH-SY5Y; assay: Induction of neurogenesis in human SH-SY5Y cells assessed as induction of GAP-43 mRNA expression at 10 uM measured after 24 hrs by RT-PCR analysis relative to control; type: functional
[12] = test system: SH-SY5Y; assay: Induction of neurogenesis in human SH-SY5Y cells assessed as induction of N-myc mRNA expression at 10 uM measured after 24 hrs by RT-PCR analysis relative to control; type: functional
[13] = test system: SH-SY5Y; assay: Induction of neurogenesis in human SH-SY5Y cells assessed as induction of MAP2 mRNA expression at 10 uM measured after 24 hrs by RT-PCR analysis relative to control; type: functional
[14] = test system: SH-SY5Y; assay: Induction of neurogenesis in human SH-SY5Y cells assessed as fold induction of GAP-43 mRNA expression at 10 uM measured after 24 hrs by RT-PCR analysis relative to retinoic acid; type: functional
[15] = test system: SH-SY5Y; assay: Induction of neurogenesis in human SH-SY5Y cells assessed as fold induction of N-myc mRNA expression at 10 uM measured after 24 hrs by RT-PCR analysis relative to retinoic acid; type: functional
[16] = test system: SH-SY5Y; assay: Induction of neurogenesis in human SH-SY5Y cells assessed as fold induction of MAP2 mRNA expression at 10 uM measured after 24 hrs by RT-PCR analysis relative to retinoic acid; type: functional
[17] = Inhibition of Cu2+ induced amyloid beta (1 to 42 residues) (unknown origin) aggregation by measuring reduction in fluorescence intensity at 20 uM after 24 hrs by thioflavin-T fluorescence method relative to control
[18] = Disaggregation of Cu2+ induced amyloid beta (1 to 42 residues) (unknown origin) aggregation measuring reduction in fluorescence intensity at 20 uM after 24 hrs by thioflavin-T fluorescence method relative to control

Sequence of Histone deacetylase 2 (Q92769 whole entry): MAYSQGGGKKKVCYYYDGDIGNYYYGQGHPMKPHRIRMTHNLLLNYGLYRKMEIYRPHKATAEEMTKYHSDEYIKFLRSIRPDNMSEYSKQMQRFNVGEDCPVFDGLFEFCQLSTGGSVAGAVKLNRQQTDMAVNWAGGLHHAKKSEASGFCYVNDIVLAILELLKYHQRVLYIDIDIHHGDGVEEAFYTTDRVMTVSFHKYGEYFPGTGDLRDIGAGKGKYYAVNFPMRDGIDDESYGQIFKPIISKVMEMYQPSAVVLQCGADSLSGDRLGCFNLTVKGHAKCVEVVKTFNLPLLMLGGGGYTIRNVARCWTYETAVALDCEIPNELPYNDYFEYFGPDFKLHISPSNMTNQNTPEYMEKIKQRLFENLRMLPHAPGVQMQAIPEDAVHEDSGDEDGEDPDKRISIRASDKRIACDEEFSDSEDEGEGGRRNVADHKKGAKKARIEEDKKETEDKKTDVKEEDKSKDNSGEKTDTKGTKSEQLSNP
Sequence of Histone deacetylase 4 (P56524 whole entry): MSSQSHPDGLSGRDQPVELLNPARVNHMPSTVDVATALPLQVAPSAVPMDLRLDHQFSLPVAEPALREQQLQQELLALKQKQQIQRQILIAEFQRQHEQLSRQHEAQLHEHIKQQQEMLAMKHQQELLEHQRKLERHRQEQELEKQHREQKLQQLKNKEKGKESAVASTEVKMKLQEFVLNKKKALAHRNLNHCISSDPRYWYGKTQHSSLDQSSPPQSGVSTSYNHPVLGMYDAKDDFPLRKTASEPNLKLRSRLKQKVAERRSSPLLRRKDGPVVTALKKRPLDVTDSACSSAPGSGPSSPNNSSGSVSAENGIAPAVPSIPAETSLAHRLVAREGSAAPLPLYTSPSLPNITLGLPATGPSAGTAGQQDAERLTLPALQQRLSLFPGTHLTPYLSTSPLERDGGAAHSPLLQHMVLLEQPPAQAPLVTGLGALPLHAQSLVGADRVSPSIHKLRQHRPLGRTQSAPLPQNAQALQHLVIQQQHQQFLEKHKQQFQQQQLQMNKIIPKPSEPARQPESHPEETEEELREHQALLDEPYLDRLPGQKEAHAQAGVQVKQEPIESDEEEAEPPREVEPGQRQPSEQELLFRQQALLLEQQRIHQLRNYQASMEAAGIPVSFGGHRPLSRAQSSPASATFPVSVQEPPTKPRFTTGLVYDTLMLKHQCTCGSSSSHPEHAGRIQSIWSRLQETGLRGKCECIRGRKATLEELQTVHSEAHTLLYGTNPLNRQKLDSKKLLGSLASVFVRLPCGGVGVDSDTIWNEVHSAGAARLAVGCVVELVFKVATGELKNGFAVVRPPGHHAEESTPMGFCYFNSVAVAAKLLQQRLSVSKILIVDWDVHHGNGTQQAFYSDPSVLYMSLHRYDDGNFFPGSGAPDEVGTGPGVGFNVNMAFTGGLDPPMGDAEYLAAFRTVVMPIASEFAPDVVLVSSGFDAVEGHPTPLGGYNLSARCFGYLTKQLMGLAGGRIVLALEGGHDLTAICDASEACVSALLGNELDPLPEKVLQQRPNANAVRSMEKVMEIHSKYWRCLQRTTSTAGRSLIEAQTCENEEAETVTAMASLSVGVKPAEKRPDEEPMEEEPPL
Sequence of Histone deacetylase 1 (Q13547 whole entry): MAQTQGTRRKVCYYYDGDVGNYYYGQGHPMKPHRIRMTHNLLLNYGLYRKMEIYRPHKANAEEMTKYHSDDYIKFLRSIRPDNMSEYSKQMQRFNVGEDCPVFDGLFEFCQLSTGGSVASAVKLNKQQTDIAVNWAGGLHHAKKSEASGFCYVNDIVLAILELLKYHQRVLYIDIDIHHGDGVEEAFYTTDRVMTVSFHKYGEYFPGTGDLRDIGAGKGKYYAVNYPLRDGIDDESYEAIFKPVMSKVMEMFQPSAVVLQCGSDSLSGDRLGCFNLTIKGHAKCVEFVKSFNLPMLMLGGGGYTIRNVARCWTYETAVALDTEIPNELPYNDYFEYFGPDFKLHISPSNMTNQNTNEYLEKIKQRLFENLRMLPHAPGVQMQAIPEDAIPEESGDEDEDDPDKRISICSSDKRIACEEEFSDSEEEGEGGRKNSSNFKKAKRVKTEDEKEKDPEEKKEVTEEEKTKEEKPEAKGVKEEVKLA

SMILES: O=C(CCc1ccc(CN2c3ccccc3Sc3ccccc32)cc1)NO
IC50 [1]: 343 nM

SMILES: COc1cc(/C=C/C(=O)CC(=O)/C=C/c2ccc(O)c(OC)c2)ccc1O [CURCUMIN]
Activity [9]: 74.6%

SMILES: O=C(NO)c1ccc(CN2c3ccccc3Sc3ccccc32)nc1
IC50 [1]: 11 nM

SMILES: CCNC(=O)c1ccc(CN2c3ccccc3Sc3ccccc32)nc1
IC50 [1]: > 1000 nM

SMILES: O=C(/C=C/c1ccc(CN2c3ccccc3Sc3ccccc32)cc1)NO
IC50 [1]: 463 nM

Second part, led by results:

IC50 [1]: 2.54 nM
IC50 [2]: 5630 nM
IC50 [3]: 8630 nM
IC50 [4]: 6120 nM
IC50 [5]: 743 nM
IC50 [6]: 1960 nM
IC50 [7]: 4300 nM
SMILES: Cl.O=C(NO)c1ccc(CN2c3ccccc3Sc3ccccc32)nc1
IC50 [8]: 115000 nM
Activity [9]: 76.3%
Activity [10]: 82%
Activity [11]: 5.71
Activity [12]: 6.28
Activity [13]: 4.79
fold change (FC) [14]: 2
fold change (FC) [15]: 2
fold change (FC) [16]: 2

IC50 [1]: 884 nM
SMILES: O=C(NO)c1coc(CN2c3ccccc3Sc3ccccc32)n1

inhibition [17]: 38.9%
Activity [18]: Active
SMILES: Oc1c(I)cc(Cl)c2cccnc12 [CLIOQUINOL]
Activity [10]: 86.2%

IC50 [1]: 537 nM
SMILES: C[C@]12CC3CC(NCc4ccc(C(=O)NO)cn4)(C1)C[C@@](C)(C3)C2

IC50 [1]: > 1000 nM
SMILES: CCNC(=O)Cn1cc(CN2c3ccccc3Sc3ccccc32)cn1
